Literature values as cited in patent publication US10570425B2, “Engineered cyanobacterium and its application for producing acetate” (National Tsing Hua University, priority 2017, dated 2020).

B1: Ec-pta: phosphate acetyltransferase Pta from Escherichia coli (protein, UniProt P0A9M8 2-714, looked up)
Phosphate acetyltransferase: SRIIMLIPTGTSVGLTSVSLGVIRAMERKGVRLSVFKPIAQPRTGGDAPDQTTTIVRANSSTTTAAEPLKMSYVEGLLSSNQKDVLMEEIVANYHANTKDAEVVLVEGLVPTRKHQFAQSLNYEIAKTLNAEIVFVMSQGTDTPEQLKERIELTRNSFGGAKNTNITGVIVNKLNAPVDEQGRTRPDLSEIFDDSSKAKVNNVDPAKLQESSPLPVLGAVPWSFDLIATRAIDMARHLNATIINEGDINTRRVKSVTFCARSIPHMLEHFRAGSLLVTSADRPDVLVAACLAAMNGVEIGALLLTGGYEMDARISKLCERAFATGLPVFMVNTNTWQTSLSLQSFNLEVPVDDHERIEKVQEYVANYINADWIESLTATSERSRRLSPPAFRYQLTELARKAGKRIVLPEGDEPRTVKAAAICAERGIATCVLLGNPAEINRVAASQGVELGAGIEIVDPEVVRESYVGRLVELRKNKGMTETVAREQLEDNVVLGTLMLEQDEVDGLVSGAVHTTANTIRPPLQLIKTAPGSSLVSSVFFMLLPEQVYVYGDCAINPDPTAEQLAEIAIQSADSAAAFGIEPRVAMLSYSTGTSGAGSDVEKVREATRLAQEKRPDLMIDGPLQYDAAVMADVAKSKAPNSPVAGRATVFIFPDLNTGNTTYKAVQRSADLISIGPMLQGMRKPVNDLSRGALVDDIVYTIALTAIQSAQQQ

Experiments:
[1] = target: acetaldehyde dehydrogenase B (AldB) (Escherichia coli, UniProt P37685); details: substrate of aldB
[2] = system: phenylacetaldehyde dehydrogenase (PadA); details: substrate of padA, Table 4
padA = details: substrate of padA as titled, Table 5
[3] = target: 3-hydroxypropionaldehyde dehydrogenase (AldH) (Escherichia coli, UniProt P23883); details: substrate of AldH
[4] = system: phosphate acetyltransferases (Pta and EutD); details: Acetyl-CoA forming reaction; for kcat/KmAc-P: substrate Ac-P; for kcat/KmCoA: substrate CoA

3-hydroxypropionaldehyde dehydrogenase (AldH), sequence (P23883 whole entry): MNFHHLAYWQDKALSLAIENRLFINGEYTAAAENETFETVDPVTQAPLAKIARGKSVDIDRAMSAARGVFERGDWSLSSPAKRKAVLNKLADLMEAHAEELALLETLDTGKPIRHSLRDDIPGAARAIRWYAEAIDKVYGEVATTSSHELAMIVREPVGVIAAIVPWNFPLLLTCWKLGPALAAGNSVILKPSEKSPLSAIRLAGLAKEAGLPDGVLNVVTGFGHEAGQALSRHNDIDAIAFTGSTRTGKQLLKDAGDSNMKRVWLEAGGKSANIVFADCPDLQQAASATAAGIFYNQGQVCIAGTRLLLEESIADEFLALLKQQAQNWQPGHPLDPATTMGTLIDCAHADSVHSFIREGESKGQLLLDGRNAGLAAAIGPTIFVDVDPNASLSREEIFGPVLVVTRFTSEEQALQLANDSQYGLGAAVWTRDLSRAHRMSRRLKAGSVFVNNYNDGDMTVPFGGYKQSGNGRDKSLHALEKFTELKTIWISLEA
acetaldehyde dehydrogenase B (AldB), sequence (P37685 whole entry): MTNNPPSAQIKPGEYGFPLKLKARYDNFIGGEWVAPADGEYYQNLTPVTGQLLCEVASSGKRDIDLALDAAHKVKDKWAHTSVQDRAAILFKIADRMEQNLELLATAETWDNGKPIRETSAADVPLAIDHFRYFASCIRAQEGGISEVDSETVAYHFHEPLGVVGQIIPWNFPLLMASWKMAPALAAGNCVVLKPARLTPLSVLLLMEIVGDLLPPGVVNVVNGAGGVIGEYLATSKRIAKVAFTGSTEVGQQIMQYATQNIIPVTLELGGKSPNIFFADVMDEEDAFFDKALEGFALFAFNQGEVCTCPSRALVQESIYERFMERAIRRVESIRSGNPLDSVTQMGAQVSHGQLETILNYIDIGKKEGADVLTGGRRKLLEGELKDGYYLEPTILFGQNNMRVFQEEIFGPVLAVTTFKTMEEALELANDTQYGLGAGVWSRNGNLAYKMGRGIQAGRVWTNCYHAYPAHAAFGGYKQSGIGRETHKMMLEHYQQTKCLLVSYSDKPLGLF

Row | Molecule | Km [1] [µM] | Km [2] [µM] | Km (padA) [µM] | Km [3] [µM] | kcat/KmAc-P [4] [sec^−1μM^−1] | kcat/KmCoA [4] [sec^−1μM^−1]
1 | O=CCCl [Chloroacetaldehyde] | 3.6 |  |  |  |  | 
2 | O=Cc1ccccc1 [Benzaldehyde] |  | 8 | 150 |  |  | 
3 | O=CCCO [3-Hydroxypropionaldehyde] |  |  |  | 490 |  | 
4 | CC=O [Acetaldehyde] | 2.5 | 2150 | 15200 | 1000 |  | 
5 | CCC=O [Propionaldehyde] | 5.8 | 11.6 | 240 | 1210 |  | 
6 | Ec-eutD: phosphate acetyltransferase EutD from Escherichia coli |  |  |  |  | 1.3 | 12.6
7 | B1 |  |  |  |  | 0.25 | 3.4
